Ki, EC50 and Emax data for three molecules are collected here from patent publication US20230265151A1, “GIP/GLP1 CO-AGONIST COMPOUNDS” (priority 2020, published 2023).

Experiment [1] has as its target T1, human GLP-1 receptor (hGLP-1R) (Homo sapiens, UniProt P43220).
T1 construct: expressed in transfected cells; crude membranes
Nature of the experiment: [125I]-GLP-1 binding, SPA with membranes of HEK293 cells expressing hGLP-1R.

Experiment [2] addresses T2, hGIPR (Homo sapiens, UniProt P48546).
T2 construct: expressed in transfected cells
T2 sequence (P48546 22-466): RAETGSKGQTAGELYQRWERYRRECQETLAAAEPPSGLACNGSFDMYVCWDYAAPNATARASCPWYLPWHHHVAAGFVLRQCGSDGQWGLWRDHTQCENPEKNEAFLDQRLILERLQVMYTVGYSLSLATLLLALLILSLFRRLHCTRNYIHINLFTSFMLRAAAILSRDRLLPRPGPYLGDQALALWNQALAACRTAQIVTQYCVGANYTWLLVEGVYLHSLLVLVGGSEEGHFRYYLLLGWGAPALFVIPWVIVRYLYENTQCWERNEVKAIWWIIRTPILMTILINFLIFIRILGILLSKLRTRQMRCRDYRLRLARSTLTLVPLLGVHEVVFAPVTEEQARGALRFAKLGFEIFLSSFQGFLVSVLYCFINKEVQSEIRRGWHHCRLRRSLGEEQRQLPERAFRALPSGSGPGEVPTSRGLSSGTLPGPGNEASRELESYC
Nature of the experiment: Functional cAMP formation (HTRF) in HEK-293 clonal cells expressing hGIPR, 0.1% bovine casein, without or with 1.0% human serum albumin. The experiment is classed as cell-based. A digest of the protocol:
(§1)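 Readings of the HTRF 665/620 nm ratio, which falls as cAMP rises, were converted to nM cAMP using a standard curve after 30 min peptide exposure at 37° C.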

Experiment [3] has as its target T3, hGCGR (Homo sapiens, UniProt P47871).
T3 construct: expressed in transfected cells
Put plainly: Functional cAMP formation (HTRF) in HEK-293 clonal cells expressing hGCGR, 0.1% bovine casein, without or with 1.0% human serum albumin. Type of experiment: cell-based. The essentials:
as §1

Experiment [4] addresses hGLP-1R (Homo sapiens, UniProt P43220). Nature of the experiment: Functional cAMP formation (HTRF) in HEK-293 clonal cells expressing hGLP-1R, 0.1% bovine casein, without or with 1.0% human serum albumin. Also noted: expressed in transfected cells. Particulars: for EC50: geometric mean; for Emax: arithmetic mean. Type of experiment: cell-based. A digest of the protocol:
as §1

Where [5] appears, read: human GLP-1R, geometric mean (SEM, n), read-out: Binding Affinity Ki, nM (SEM, n) hGLP-1R.
Where [6] appears, read: HEK293, 0.1% bovine casein and 1.0% human serum albumin, 37° C., percent of maximal response to GIP(1-42)NH2, read-out: hGIPR Emax, % ± SEM.
[7] abbreviates: cAMP, incubated at 37° C., 0.1% bovine casein (no human serum albumin), geometric mean, read-out: hGIPR EC50, nM (SEM, n).
Where [8] appears, read: 0.1% bovine casein and 1.0% human serum albumin, 37° C., geometric mean, read-out: hGCGR EC50, nM (SEM, n).
The mark [9] stands for this setting: cAMP, incubated at 37° C., 0.1% bovine casein (no human serum albumin), geometric mean, read-out: hGCGR EC50, nM (SEM, n).

Where two headings read alike, the source gives them in different places.

Sequence of hGLP-1R (P43220 24-463): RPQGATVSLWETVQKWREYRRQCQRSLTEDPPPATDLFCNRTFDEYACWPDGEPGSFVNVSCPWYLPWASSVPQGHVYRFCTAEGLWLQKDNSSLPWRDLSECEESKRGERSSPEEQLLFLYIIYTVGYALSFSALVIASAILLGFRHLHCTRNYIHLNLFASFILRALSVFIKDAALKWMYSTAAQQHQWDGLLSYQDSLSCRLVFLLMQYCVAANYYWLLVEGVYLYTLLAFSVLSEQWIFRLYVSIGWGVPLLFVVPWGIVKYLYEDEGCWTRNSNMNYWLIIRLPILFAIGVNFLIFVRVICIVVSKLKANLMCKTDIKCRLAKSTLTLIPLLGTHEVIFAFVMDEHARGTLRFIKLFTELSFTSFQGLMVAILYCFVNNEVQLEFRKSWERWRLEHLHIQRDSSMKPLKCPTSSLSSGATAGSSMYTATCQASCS
T1 sequence (P43220 24-463): as above
T3 sequence (P47871 26-477): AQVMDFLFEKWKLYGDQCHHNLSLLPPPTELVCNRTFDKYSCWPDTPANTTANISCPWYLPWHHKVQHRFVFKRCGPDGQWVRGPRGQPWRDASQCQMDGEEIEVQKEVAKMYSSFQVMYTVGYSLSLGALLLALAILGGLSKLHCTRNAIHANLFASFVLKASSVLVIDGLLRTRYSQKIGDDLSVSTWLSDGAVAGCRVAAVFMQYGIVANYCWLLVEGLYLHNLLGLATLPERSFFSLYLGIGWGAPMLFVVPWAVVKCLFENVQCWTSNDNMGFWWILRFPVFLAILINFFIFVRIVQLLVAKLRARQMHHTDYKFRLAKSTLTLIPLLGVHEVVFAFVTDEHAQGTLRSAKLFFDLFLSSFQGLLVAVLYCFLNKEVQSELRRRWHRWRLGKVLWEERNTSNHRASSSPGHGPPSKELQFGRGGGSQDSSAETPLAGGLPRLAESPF

On to `CCCCCCCCCCCC(=O)N[C@@H](CCC(=O)NCCOCCOCC(=O)NCCOCCOCC(=O)NCCCC[C@H](NC(=O)[C@H](CCCN)NC(=O)[C@H](CC(=O)O)NC(=O)[C@H](CC(C)C)NC(=O)[C@](C)(CC(C)C)NC(=O)[C@@H](NC(=O)[C@H](CO)NC(=O)[C@H](Cc1ccncc1)NC(=O)[C@H](CC(=O)O)NC(=O)[C@H](CO)NC(=O)[C@@H](NC(=O)[C@](C)(Cc1ccccc1F)NC(=O)[C@@H](NC(=O)CNC(=O)[C@H](CCC(=O)O)NC(=O)C(C)(C)NC(=O)[C@@H](N)Cc1ccc(O)cc1)[C@@H](C)O)[C@@H](C)O)[C@@H](C)CC)C(=O)N[C@@H](C)C(=O)N[C@@H](CCC(N)=O)C(=O)NC(C)(C)C(=O)N[C@@H](CCCCNC(=O)COCCOCCNC(=O)COCCOCCNC(=O)CC[C@H](NC(=O)CCCCCCCCCCC)C(=O)O)C(=O)N[C@@H](Cc1ccccc1)C(=O)N[C@H](C(=O)N[C@H](CCC(=O)O)C(=O)N[C@@](C)(Cc1ccc(O)cc1)C(=O)N[C@@H](CC(C)C)C(=O)N[C@H](C(=O)N[C@@H](CCC(=O)O)C(=O)NCC(=O)NCC(=O)N1CCC[C@H]1C(=O)N[C@@H](CO)C(=O)N[C@@H](CO)C(=O)NCC(=O)N[C@@H](C)C(=O)N1CCC[C@H]1C(=O)N1CCC[C@H]1C(=O)N1CCC[C@H]1C(=O)N[C@@H](CO)C(N)=O)[C@@H](C)CC)[C@@H](C)CC)C(=O)O` [Example 137], for which the inhibition constant Ki in experiment [1] (setting [5]) came to 0.25 nM. Besides, the EC50 in experiment [2] (0.1% bovine casein and 1.0% human serum albumin, 37° C., geometric mean, read-out: hGIPR EC50, nM (SEM, n)) was 0.728 nM; in experiment [2] (setting [7]), 0.0116 nM; in experiment [3] (setting [8]), more than 9950 nM; in experiment [3] (setting [9]), more than 9950 nM; in experiment [4] (0.1% bovine casein and 1.0% human serum albumin, 37° C., read-out: hGLP-1R EC50, nM (SEM, n)) it was 5.02 nM; in experiment [4] (cAMP, incubated at 37° C., 0.1% bovine casein (no human serum albumin), read-out: hGLP-1R EC50, nM (SEM, n)) it was 0.134 nM. Further, the Emax in experiment [2] (setting [6]) stood at 90.3 ± 0.387%.

Regarding `CC[C@H](C)[C@H](NC(=O)[C@H](CC(C)C)NC(=O)[C@](C)(Cc1ccc(O)cc1)NC(=O)[C@@H](CCC(=O)O)NC(=O)[C@@H](NC(=O)[C@H](Cc1ccccc1)NC(=O)[C@H](CCC(=O)O)NC(=O)C(C)(C)NC(=O)[C@H](CCC(N)=O)NC(=O)[C@H](C)NC(=O)[C@H](CCCCNC(=O)COCCOCCNC(=O)COCCOCCNC(=O)CC[C@H](NC(=O)CCCCCCCCCCCCC(=O)O)C(=O)O)NC(=O)[C@H](CCCN)NC(=O)[C@H](CC(=O)O)NC(=O)[C@H](CC(C)C)NC(=O)[C@](C)(CC(C)C)NC(=O)[C@@H](NC(=O)[C@](C)(CO)NC(=O)[C@H](Cc1ccc(O)cc1)NC(=O)[C@H](CC(=O)O)NC(=O)[C@H](CO)NC(=O)[C@@H](NC(=O)[C@](C)(Cc1ccccc1F)NC(=O)[C@@H](NC(=O)CNC(=O)[C@H](CCC(=O)O)NC(=O)C(C)(C)NC(=O)[C@@H](N)Cc1ccc(O)cc1)[C@@H](C)O)[C@@H](C)O)[C@@H](C)CC)[C@@H](C)CC)C(=O)N[C@@H](CCC(=O)O)C(=O)NCC(=O)NCC(=O)N[C@@H](CCCCNC(=O)COCCOCCNC(=O)COCCOCCNC(=O)CC[C@H](NC(=O)CCCCCCCCCCCCC(=O)O)C(=O)O)C(=O)N[C@@H](CO)C(=O)N[C@@H](CO)C(=O)NCC(=O)N[C@@H](C)C(=O)N1CCC[C@H]1C(=O)N1CCC[C@H]1C(=O)N1CCC[C@H]1C(=O)N[C@@H](CO)C(N)=O` [Example 49], in experiment [1] (setting [5]), the inhibition constant (Ki) stood at 1.21 nM. Further, the Emax in experiment [2] (setting [6]) was found to be 92.4 ± 4.07%; in experiment [2] (HEK293, percent of maximal response to GIP(1-42)NH2, 37° C., 0.1% bovine casein, arithmetic mean, read-out: hGIPR Emax, % ± SEM), 91 ± 1.7%; in experiment [4] (HEK293, percent of maximal response to GLP-1(7-36)NH2, 37° C., 0.1% bovine casein, read-out: hGLP-1R Emax, % ± SEM), 97.3 ± 5.46%. The 50% effective concentration (EC50) in experiment [2] (setting [7]) was 0.0205 nM; in experiment [3] (setting [8]), more than 9950 nM; in experiment [3] (setting [9]) it was more than 9950 nM.

Regarding `CC[C@H](C)[C@H](NC(=O)[C@H](CC(C)C)NC(=O)[C@](C)(Cc1ccc(O)cc1)NC(=O)[C@H](CCCCNC(=O)COCCOCCNC(=O)COCCOCCNC(=O)CC[C@H](NC(=O)CCCCCCCCCOc1ccc(C(=O)O)cc1)C(=O)O)NC(=O)[C@@H](NC(=O)[C@H](Cc1ccccc1)NC(=O)[C@H](Cc1ccncc1)NC(=O)C(C)(C)NC(=O)[C@H](CCC(N)=O)NC(=O)[C@H](C)NC(=O)[C@H](CCC(N)=O)NC(=O)[C@H](CCCN)NC(=O)[C@H](CC(=O)O)NC(=O)[C@H](CC(C)C)NC(=O)[C@](C)(CC(C)C)NC(=O)[C@@H](NC(=O)C(C)(C)NC(=O)[C@H](Cc1ccncc1)NC(=O)[C@H](CC(=O)O)NC(=O)[C@H](CO)NC(=O)[C@@H](NC(=O)[C@](C)(Cc1ccccc1F)NC(=O)[C@@H](NC(=O)CNC(=O)[C@H](CCC(=O)O)NC(=O)C(C)(C)NC(=O)[C@@H](N)Cc1ccc(O)cc1)[C@@H](C)O)[C@@H](C)O)[C@@H](C)CC)[C@@H](C)CC)C(=O)N[C@@H](CCCCNC(=O)COCCOCCNC(=O)COCCOCCNC(=O)CC[C@H](NC(=O)CCCCCCCCCOc1ccc(C(=O)O)cc1)C(=O)O)C(=O)NCC(=O)NCC(=O)N1CCC[C@H]1C(=O)N[C@@H](CO)C(=O)N[C@@H](CO)C(=O)NCC(=O)N[C@@H](C)C(=O)N1CCC[C@H]1C(=O)N1CCC[C@H]1C(=O)N1CCC[C@H]1C(=O)N[C@@H](CO)C(N)=O` [Example 493], affinity in experiment [1] was put at a Ki of 0.25 nM. The maximal effect (Emax) was 94.6% in experiment [2] (HEK293, read-out: hGIPR Emax, % ± SEM, cAMP, 37° C., 0.1% bovine casein and 1.0% human serum albumin, percent of maximal response to GIP(1-42)NH2); 105% in experiment [2] (HEK293, read-out: hGIPR Emax, % ± SEM, cAMP, 37° C., 0.1% bovine casein, percent of maximal response to GIP(1-42)NH2, arithmetic mean); 126% in experiment [4] (HEK293, read-out: hGLP-1R Emax, % ± SEM, cAMP, 37° C., 0.1% bovine casein, percent of maximal response to GLP-1(7-36)NH2). The EC50 in experiment [2] (hGIPR EC50, nM (SEM, n), cAMP, 37° C., 0.1% bovine casein (no human serum albumin), geometric mean) was 0.0155 nM; in experiment [2] (hGIPR EC50, nM (SEM, n), cAMP, 37° C., 0.1% bovine casein and 1.0% human serum albumin, geometric mean (SEM, n)), 0.591 nM; in experiment [3] (hGCGR EC50, nM (SEM, n), cAMP, 37° C., 0.1% bovine casein (no human serum albumin), geometric mean), more than 9950 nM; in experiment [3] (hGCGR EC50, nM (SEM, n), cAMP, 37° C., 0.1% bovine casein and 1.0% human serum albumin, geometric mean (SEM, n)) it was more than 9950 nM; in experiment [4] (hGLP-1R EC50, nM (SEM, n), cAMP, 37° C., 0.1% bovine casein (no human serum albumin)), 0.184 nM.
